{"source": "paper PMC4871512", "about": "“Drug-Based Lead Discovery: The Novel Ablative Antiretroviral Profile of Deferiprone in HIV-1-Infected Cells and in HIV-Infected Treatment-Naive Subjects of a Double-Blind, Placebo-Controlled, Randomized Exploratory Trial” (PLoS ONE, 2016)", "key": {"HIV-1 DNA": {"tested_on": "HIV-1 DNA", "assay": "HIV-1 DNA (Roche Amplicor HIV-1 DNA Test) in isolate-infected primary cell cultures", "assay_type": "cell-based", "conditions": "200 μM deferiprone", "description": "Cell-free supernatants were used for p24 and HIV-1 RNA measurements. p24 core antigen in the supernatant was quantified by ELISA (Retrotek HIV-1 p24®; ZeptoMetrix Corp.; Buffalo, NY). HIV-1 RNA copy number in the supernatant of PBMC cultures and in plasma of trial subjects enrolled in the exploratory deferiprone trial was determined with a PCR-based and FDA-approved assay (Amplicor HIV-1 Monitor®; Roche Diagnostics Corp.; Indianapolis, IN). For clinical samples, the assay was used per the Standard Specimen Processing Procedure (sensitivity limit 400 copies/ml); for cell culture samples, the assay was used in both the Standard Specimen Processing and the UltraSensitive Specimen Processing Procedure (sensitivity limit 50 copies/ml). If not specified further, the term “log10” designates the amount of HIV-1 RNA in the dimensions [log10 / ml]. […] Results are shown per the assay’s optical readings of a chromogenic reaction that relates absorbance at 450 nm to the HIV-1 DNA copy number and is calibrated by assay-internal copy controls (A450 < 0.350, HIV-1 DNA absent; A450 ≥ 3.0, HIV-1 DNA present in excess of 20 copies; A450 between 0.350 and 3.0, HIV-1 DNA copy number per copy controls). Apoptotic DNA fragmentation was quantified flow-cytometrically, using a terminal deoxynucleotide transferase dUTP nick end-labeling (TUNEL) assay (APO-BRDU™; Phoenix Flow Systems; San Diego, CA). […]"}, "[1]": {"tested_on": "HIV-infected peripheral blood mononuclear cells", "assay": "Apoptotic DNA fragmentation by TUNEL in single-donor non-replenished PBMC cultures", "assay_type": "cell-based, human", "conditions": "200 μM deferiprone", "description": "Fig 2 Effect of deferiprone in HIV-infected primary cells: Apoptotic DNA fragmentation, deoxyhypusyl-eIF5A accumulation, and DOHH activity. Apoptotic DNA fragmentation (Panel A) was detected by terminal deoxynucleotide transferase dUTP nick end labeling (TUNEL) of single-donor peripheral blood mononuclear cells, maintained in short-term non-replenished cultures as described. Cells were left uninfected and/or untreated; or infected immediately after plating with clinical HIV-1 isolate and 12 hours after infection, treated with 200 μM deferiprone. […] The dose-effect curve for inhibition of cellular DOHH by increasing deferiprone concentrations in short-term non-replenished single-donor cultures (Panel C) was calculated from the accumulation of its ^3H-labeled substrate and the decrease of its ^3H-labeled product; error bars are at the size of the graph symbols and not shown. […]\nCell-free supernatants were used for p24 and HIV-1 RNA measurements. p24 core antigen in the supernatant was quantified by ELISA (Retrotek HIV-1 p24®; ZeptoMetrix Corp.; Buffalo, NY). HIV-1 RNA copy number in the supernatant of PBMC cultures and in plasma of trial subjects enrolled in the exploratory deferiprone trial was determined with a PCR-based and FDA-approved assay (Amplicor HIV-1 Monitor®; Roche Diagnostics Corp.; Indianapolis, IN). […]"}}}
{"smiles": "Cc1c(O)c(=O)ccn1C", "note": "[deferiprone, 3-hydroxy-1,2-dimethylpyridin-4-one]", "values": [{"measurement": "decline of HIV-1 DNA", "setting": "HIV-1 DNA", "value": "reached the lower limit of detectability"}, {"measurement": "final A450 readings of the HIV-1 DNA test", "setting": "HIV-1 DNA; 10 days off-drug", "value": "negative for the continued presence of HIV-1 DNA"}, {"measurement": "DNA fragmentation in infected treated relative to infected untreated cultures", "setting": "[1]; at 120 hours", "value": "twice"}, {"measurement": "DNA fragmentation in infected treated relative to infected untreated cultures", "setting": "[1]; at 144 hours, P = 0.001", "value": "three times as high"}]}
